These results are taken from patent US8703188B1, “Dispersible tablet” (Azanta A/S, priority 2012, dated 2014).

SMILES strings stand for the structures. Converted amounts (≈) assume the structure as drawn.

The nature of data set [1]: Solubility of Nimorazole in water. The format is physicochemical.
The conditions of data set [2]: The Merck Index, 14th Edition; cited from earlier work.

A word on the solubility: it is the concentration that dissolves in the medium under given conditions. High values mean a readily soluble substance, low ones a poorly soluble substance. In the case of `O=[N+]([O-])c1cncn1CCN1CCOCC1` [Nimorazole], the solubility in data set [1] is 4910 µg/mL (≈ 21.7 mM). Also, the solubility in water entry in data set [2] was “slightly soluble”.
